# Results filed as inconclusive are left out. The source made the active and inactive calls. The rule behind the calls is not given here.
# Test system: Mycobacterium tuberculosis non-replicating, growth inhibition
# Experiment: growth inhibition of non-replicating M. tuberculosis (AID 488890)
row,SMILES,IC50
1,O=C(Nc1nc(-c2ccccn2)cs1)c1ccc([N+](=O)[O-])o1,25.5 µM (inactive)
2,O=S1(=O)N=C(N/N=C/C=C/c2ccccc2)c2ccccc21,8.69 µM
3,Cc1nc([N+](=O)[O-])c(Br)n1CC(=O)c1ccc2ccccc2c1,7.54 µM
4,CCc1cc(C(c2ccncc2)N2CCN(C)CC2)c(NC(=O)c2ccccc2)s1 (stereo unspecified),10.6 µM (inactive)
5,Clc1ccc(OCCCCN2CCc3ccccc3C2)cc1,9.36 µM
6,CCCNC(=O)c1ccc(COc2ccc(C)cc2)o1,32.9 µM (inactive)
7,O=[N+]([O-])c1ccc2nc(SCc3cn4cc(Cl)ccc4n3)[nH]c2c1,8.17 µM
8,CCC(=O)Nc1nc2ccccc2n1Cc1ccc(Cl)cc1,0.84 µM
9,COC(=O)COc1cccc(NC(=O)COc2ccccc2)c1,7.75 µM
10,O=C(CCN1CCOCC1)c1ccc(Br)cc1,3.83 µM
11,CCCS(=O)(=O)c1nnnn1-c1cccc(OC)c1,3.56 µM
12,O=C(Nc1sc2c(c1C(=O)O)CCCC2)c1ccc(F)cc1,24.3 µM (inactive)
13,O=C(Nc1nnc(-c2ccccn2)o1)c1cccc(Cl)c1,11.4 µM (inactive)
14,CCCOC(=O)c1cc(-c2ccc(C=O)o2)ccc1Cl,4.94 µM
15,O=C1NC(=O)N(Cc2ccc(F)cc2)C(=O)/C1=C\c1ccc([N+](=O)[O-])s1,11.2 µM (inactive)
16,Cc1ccccc1C(=O)NN1CC(C(=O)OCc2ccc(Cl)c(Cl)c2)CC1=O (stereo unspecified),14.1 µM (inactive)
17,Cc1cc(NCCCn2ccnc2)n2ncc(-c3ccc(Cl)cc3)c2n1,13.1 µM (inactive)
18,N/N=C(/Cc1nc2ccccc2[nH]1)c1ccc([N+](=O)[O-])cc1,1.06 µM
19,O=C(CC(=O)c1cc(Cl)ccc1O)c1ccccc1,2.65 µM
20,CC(CN1CCOCC1)OC(=O)c1ccc(Br)cc1 (stereo unspecified),1.51 µM
21,O=C(COc1ccc2ccccc2c1Br)N1CCCC1,0.56 µM
22,O=c1c2ccc(Cl)cc2nc(-c2ccc([N+](=O)[O-])cc2)n1O,1.3 µM
23,Oc1ccccc1/C=N/Nc1nc2ccccc2o1,0.19 µM
24,O=C(COC(=O)c1cc(Br)ccc1O)Nc1ccc2c(c1)OCO2,7.79 µM

row,SMILES,IC50
1,Cc1ccc(N2NC(=O)/C(=C/C=C/c3ccco3)C2=O)cc1C,3.72 µM
2,Cc1ccc(SCCC(=O)OCC(=O)NCC2CCCCC2)cc1,16.6 µM (inactive)
3,C/C(=C\C(=O)c1ccncc1)Nc1ccccc1O,4.15 µM
4,Cc1cc(C)c(C(=O)COC(=O)c2ccc([N+](=O)[O-])o2)cc1C,0.93 µM
5,O=c1c2ccc(Cl)cc2nc(-c2cccc(C(F)(F)F)c2)n1O,0.33 µM
6,Cc1cc(Br)ccc1OCCCCN1CCCCC1,14.4 µM (inactive)
7,COCCn1c(C)cc(C(=O)COC(=O)c2ccc(Br)o2)c1C,43.8 µM (inactive)
8,O=C(CCSc1nnc(-c2ccncc2)o1)Nc1cccc(Cl)c1,20.3 µM (inactive)
9,CC(C)(C)OC(=O)NNc1c2ccccc2nc2ccccc12,4.09 µM
10,CC(NC(=O)COc1ccccc1F)C1CC2CCC1C2 (stereo unspecified),0.42 µM
11,CC1=C/C(=N\OS(=O)(=O)c2ccccc2)C(C)=CC1=O,0.66 µM
12,O=C(Nc1ccc2c(c1)CCC2)c1ccc(Br)o1,7.88 µM
13,Cc1ccc2[nH]c(C)c(CCNC(=O)c3cc4cc([N+](=O)[O-])ccc4oc3=O)c2c1,9.15 µM
14,C/C(O)=C\c1nc2ccccc2oc1=O,3.18 µM
15,Cc1cc(C(=O)N/N=C/c2ccc([N+](=O)[O-])o2)c(C)o1,5.51 µM
16,CC(C)(C)c1ccc(C(=O)N2CCCC2)s1,1.66 µM
17,CCOC(=O)c1ccc(COC(=O)c2cc3ccccc3oc2=O)o1,12.1 µM (inactive)
18,CCn1c(=O)c(C(=O)Nc2ncccc2C)c(O)c2ccccc21,9.94 µM
19,CCCCN(C)S(=O)(=O)c1ccc(C(=O)Nc2nnc(-c3ccco3)o2)cc1,23 µM (inactive)
20,COc1ccc(CCNc2nc(-c3ccccn3)cs2)cc1OC,8.4 µM
21,O=C(C/C=N\OCc1ccc([N+](=O)[O-])cc1)Nc1ccccc1,4.57 µM
22,CCC(=O)Nc1nc2ccccc2n1Cc1ccccc1Cl,4.32 µM
23,COc1cccc(-c2nnc(NC(=O)c3cccc(F)c3)o2)c1,11.1 µM (inactive)
24,CC(C)c1ccc(N2C(=O)NC(=O)/C(=C/C=C/c3ccco3)C2=O)cc1,8.65 µM

row,SMILES,IC50
1,Cc1nn(-c2ccccc2)nc1C(=O)c1c(C)[nH]n(-c2ccccc2)c1=O,4.19 µM
2,Cc1ccc(NC(CC(=O)c2ccccc2)C(=O)O)cc1Cl (stereo unspecified),8.32 µM
3,COc1ccc(S(=O)(=O)NCc2ccc3c(c2)cc(C)n3C)cc1,19.9 µM (inactive)
4,O=C(c1ccc([N+](=O)[O-])o1)N1CCN(Cc2ccccc2)CC1,2.81 µM
5,c1ccc(C2=Nc3ccccc3OC2)cc1,4.54 µM
6,CC1=CC2=NC(=O)/C(=C\c3ccc(OC(=O)c4ccco4)cc3)C(=N)N2O1,5.99 µM
7,CCc1cc2c(=O)n(C(C)C(=O)OC3CCCCC3)cnc2s1 (stereo unspecified),16.6 µM (inactive)
8,O=c1c2cc(Cl)ccc2nc(-c2ccccc2Cl)n1O,15.5 µM (inactive)
9,Cc1nnsc1C(=O)N/N=C/c1ccc2ccccc2c1O,0.48 µM
10,O=c1oc2ccccc2c2c1nc(C(F)(F)F)n2-c1ccccc1,2 µM
11,C/C(=N\O)c1cc(Cl)ccc1O,2.42 µM
12,c1ccc2cc(OCCCn3ccnc3)ccc2c1,16.5 µM (inactive)
13,COC(=O)c1cccc(NC(=O)COc2cccc([N+](=O)[O-])c2)c1,7.11 µM
14,CCOC(=O)N1CCC(N2CCCC(C(=O)c3ccc4cc(OC)ccc4c3)C2)CC1 (stereo unspecified),18.7 µM (inactive)
15,CCOc1cccc2cc(C(=O)NC(C)c3ccccc3)c(=N)oc12 (stereo unspecified),32.9 µM (inactive)
16,CCOC(=O)C(C)(C)n1nnc(-c2ccc([N+](=O)[O-])cc2)n1,14.3 µM (inactive)
17,C#CCOc1coc(COC(=O)c2ccccc2)cc1=O,48.5 µM (inactive)
18,Cc1ccc(C(=O)N/N=C\c2ccc[nH]2)cn1,16.9 µM (inactive)
19,O=C(N/N=C/c1ccc(Br)s1)c1cccnc1,9.43 µM
20,Brc1ccc(-c2ccc(CNCc3ccccn3)o2)cc1,1.12 µM
21,Cc1cnc(NC(=O)c2ccccn2)s1,8.53 µM
22,O=S(=O)(Nc1nccs1)c1ccc(NCc2cc(Br)cc(Br)c2O)cc1,10.7 µM (inactive)
23,Cc1ccc(NC(=O)CC2SC3=NCCCN3C2=O)c(C)c1 (stereo unspecified),18.8 µM (inactive)
24,Cc1cc(OCc2cc(C(=O)N(C)CCc3cnn(C)c3)no2)cc(C)c1Cl,30.6 µM (inactive)

row,SMILES,IC50
1,Cc1cccc(NC(=O)CO/N=C/c2ccc3c(c2)OCO3)c1,10.2 µM (inactive)
2,CCOC(=O)CN1NC2(CCC(C)CC2)NC1=S (stereo unspecified),15.2 µM (inactive)
3,CCOc1ccc(OCC(=O)Nc2nccs2)cc1,7.75 µM
4,Clc1cccc(-c2ccc(CNCc3ccccn3)o2)c1,6.87 µM
5,COc1ccc(C(=O)Cn2c(C)nc([N+](=O)[O-])c2Br)cc1,19.9 µM (inactive)
6,Cc1ccc2c(CC(=O)OCC(=O)Nc3ccc(Cl)cn3)coc2c1,15 µM (inactive)
7,COC(=O)COc1ccc(S(=O)(=O)NCc2ccc3c(c2)OCO3)cc1,14.3 µM (inactive)
8,Cc1ccc2nc3c(c(N)c2c1)CCN3c1ccccc1,28.4 µM (inactive)
9,COc1cccc2cc(C(=O)c3ccc([N+](=O)[O-])cc3)oc12,6.05 µM
10,CCCNC(=O)COC(=O)c1cc2c(=O)n3ccccc3nc2s1,23.6 µM (inactive)
11,Cc1ccc(NC(=O)ON=C2CCCC2)cc1,1.97 µM
12,O=C(CCSc1nnc(-c2ccccc2)o1)N1CCOCC1,3.95 µM
13,Cc1cc2cc(CNC(=O)C3CCCC3)ccc2n1C,17.5 µM (inactive)
14,COc1ccc([N+](=O)[O-])c(S(=O)(=O)c2ccc(Cl)cc2)n1,1 µM
15,CN(C)CC/C=C1\c2ccccc2Sc2cc(F)c(Cl)cc21,10.5 µM (inactive)
16,COc1ccc(NC(=O)c2cnc(SC)nc2)cc1,28.9 µM (inactive)
17,Cc1ccc2cc3c(nc2c1)OCC3,6.8 µM
18,O=C(N/N=C/C=C/c1ccccc1[N+](=O)[O-])c1ccncc1,1.23 µM
19,CCOC(=O)c1cc2cc3ccccc3cc2oc1=O,37.6 µM (inactive)
20,C=C[C@]1(C)C=C2CCC3[C@](C)(CCC[C@@]3(C)C(=O)O)C2CC1 (stereo partly specified),6.33 µM
21,CC(=O)c1ccc(NC(=O)c2cc(CC(C)C)on2)cc1,3.58 µM
22,O=C(Nc1ccccc1F)c1ccc(CSc2ccccc2)o1,4.4 µM
23,COc1ccc(NC(=O)c2ccc(-c3ccc([N+](=O)[O-])cc3)o2)cc1OC,3.93 µM
24,Cc1cccc(OC(=O)c2sc3ncn(C)c(=O)c3c2C)c1,4.61 µM

row,SMILES,IC50
1,CC(=O)OCCNc1cc(SCc2ccco2)c2nonc2c1[N+](=O)[O-],3.04 µM
2,NNC(=O)COc1cccc(Oc2ccccc2)c1,25.2 µM (inactive)
3,Nc1c(C(=O)NC2CCCCC2)nsc1C(=O)OCC(=O)NC1CCCCC1,3.27 µM
4,S=C1CN=C(c2ccccc2)c2cc(Cl)ccc2N1,8.42 µM
5,COc1cccc(COC(=O)c2sc3nc4n(c(=O)c3c2C)CCC4)c1OC,2.48 µM
6,O=C(N/N=C/c1ccc[nH]1)c1cccnc1,26.7 µM (inactive)
7,CCc1ccc2c(c1)Sc1ccccc1CC2N1CCN(C)CC1 (stereo unspecified),13.6 µM (inactive)
8,CC1=NN(c2ccccc2)C(=O)C1C(=O)c1ccccc1 (stereo unspecified),15.9 µM (inactive)
9,COc1ccc2cc(C(=O)C3CCCN(Cc4cccc(C)n4)C3)ccc2c1 (stereo unspecified),8.11 µM
10,O=C(COC(=O)CC1CCCC1)Nc1ccc(Cl)cn1,17.2 µM (inactive)
11,O=c1c2c([N+](=O)[O-])cc([N+](=O)[O-])cc2nc2ccccn12,9.45 µM
12,CC1=NN(c2ccc(C(=O)O)cc2)C(=O)/C1=C\c1ccc(OC(=O)c2cccs2)cc1,7.5 µM
13,COc1cccc(C(=O)Nc2nnc(-c3ccc(F)cc3)o2)c1,8.17 µM
14,Cc1onc(-c2ccccc2)c1C(=O)N/N=C/c1ccc([N+](=O)[O-])s1,8.09 µM
15,O=C(COC(=O)CCc1c[nH]c2ccccc12)Nc1cc([N+](=O)[O-])ccc1Cl,3.17 µM
16,COc1cccc(-c2nnc(NC(=O)c3ccc(S(=O)(=O)N(CC(C)C)CC(C)C)cc3)o2)c1,13.7 µM (inactive)
17,Cc1ccc(-c2nnc(Cc3ccc([N+](=O)[O-])cc3)o2)cc1,1.77 µM
18,COc1ccc(C(=O)Oc2cccc3cccnc23)cc1S(=O)(=O)N1CCOCC1,1.19 µM
19,CCOC(=O)COc1ccc(/C=C2\NC(=S)N(CC)C2=O)cc1,7.01 µM
20,CCN1CCC(=NNC(=O)c2ccco2)CC1,42.6 µM (inactive)

# Source: PubChem BioAssay AID488890 (Southern Research Specialized Biocontainment Screening …, 2010)
